Measurements published in PMC6191541, “Small-Molecule Acetylation Controls the Degradation of Benzoate and Photosynthesis in Rhodopseudomonas palustris” (mBio, 2018).

Key:
[1] = target: T1, BadM (Rhodopseudomonas palustris, UniProt O07465); test: EMSA with 6-FAM-labelled badDEFGAB promoter probe; conditions: 72 nM BadM, 12 nM probe; 10 mM compound, blocks DNA binding; no effect at 5 mM
T1 construct: plasmid pRpBadM8, expressed in E. coli C41(lambda-DE3) pka12::kan+, purified; tag details in Text S1

[2] = target: T2, BadM (Rhodopseudomonas palustris) (UniProt O07465); test: EMSA; conditions: 25 µL; Tris 20 mM pH 7.5 (at 25°C), KCl 50 mM, DTT 1 mM, glycerol (rest of buffer not in the material); probe 12 nM (0.303 pmol), BadM 72 nM (1.8 pmol) …
T2 sequence: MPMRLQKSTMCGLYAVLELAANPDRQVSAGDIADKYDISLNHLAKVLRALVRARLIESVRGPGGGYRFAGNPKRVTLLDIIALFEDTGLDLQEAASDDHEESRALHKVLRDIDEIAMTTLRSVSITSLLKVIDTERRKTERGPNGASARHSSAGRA

[3] = target: T3, GmBadL (Geobacter metallireducens, UniProt Q39TU9); test: [[…]-14C]acetyl-CoA transfer, TLC phosphor imaging; format: biochemical; conditions: co-substrate acetyl-CoA
T3 construct: gene Gmet_2096; plasmid pGmBadL1, expressed in E. coli C41(lambda-DE3) pka12::kan+, purified; tag details in Text S1
T3 sequence (Q39TU9 entry or part of it): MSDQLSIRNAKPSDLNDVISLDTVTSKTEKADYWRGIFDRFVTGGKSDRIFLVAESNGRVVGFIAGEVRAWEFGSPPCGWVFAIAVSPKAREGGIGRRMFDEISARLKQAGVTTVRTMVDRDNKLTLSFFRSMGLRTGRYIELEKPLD

[4] = target: T4, MmBadL (Paramagnetospirillum magneticum, UniProt Q2W1S9); test: [[…]-14C]acetyl-CoA transfer, TLC phosphor imaging; format: biochemical; conditions: co-substrate acetyl-CoA
T4 construct: gene amb3392; plasmid pMmBadL2, expressed in E. coli C41(lambda-DE3) pka12::kan+, purified; tag details in Text S1
T4 sequence (Q2W1S9 entry or part of it): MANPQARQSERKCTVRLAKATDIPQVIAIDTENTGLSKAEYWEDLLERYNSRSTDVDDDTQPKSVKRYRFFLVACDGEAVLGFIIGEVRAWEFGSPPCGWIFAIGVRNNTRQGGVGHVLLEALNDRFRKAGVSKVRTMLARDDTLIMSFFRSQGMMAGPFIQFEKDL

CC(=O)Nc1ccccc1C(=O)O [2-ABA^Ac, 2-acetamidobenzoate]
EMSA with 6-FAM-labelled badDEFGAB promoter probe [1]: addition of 2-acetamidobenzoate blocked binding of BadM to its DNA target

GTGATGCGGCCTGTCGAGCATGCCGGTCGTCCTCCCTGCCCGGCGGCTCTGCCGGGTCGCGCTGCCGGCCATTTTCCGGCCCAGCGATTTAAATGTAATCTAGTATCGGAATGCGATAATTAATTTGATGCGGATCAAATTTGGCAAAGGCACAGCCGACACGGGCCGACGCCGGCTCGTAGTCGGGAGGCTCAGATATCGATCGCGATCTT (double strand) [badDEFGAB promoter / badCD intergenic probe]
binding [2]: binds

Nc1ccc(C(=O)O)cc1 [4-ABA, 4-aminobenzoate]
[1-14C]acetyl-CoA transfer, TLC phosphor imaging [3]: MmBadL and GmBadL acetylated 4-aminobenzoate producing 4-acetamidobenzoate | [1-14C]acetyl-CoA transfer, TLC phosphor imaging [4]: MmBadL and GmBadL acetylated 4-aminobenzoate producing 4-acetamidobenzoate
